{"source": "patent US20230255970A1", "about": "“COMPOSITIONS AND METHODS FOR TREATING PROLIFERATIVE DISEASES” (The Broad Institute, Inc., priority 2020, published 2023)", "key": {"[1]": {"test_system": "TAZ", "conditions": "HT29 cells, six hours; cited from earlier work"}, "[2]": {"test_system": "YAP1 mRNA", "conditions": "cited from earlier work"}, "[3]": {"test_system": "YAP1", "assay": "Western blot of phospho-YAP1 (S127) in H9 cells", "assay_type": "cell-based, human", "conditions": "24 hrs", "method": "(§1) H9 hPSCs (WiCell) were maintained on vitronectin (Thermo Fisher)-coated plates in Essential 8 (E8) medium. The cells were routinely passaged using 0.5 mM EDTA and treated with 5 μM Y-27632 dihydrochloride (Tocris) on the first day. For testing the effects of the small molecules, H9 hPSCs were seeded at 50K cells/cm^2 on vitronectin-coated plates in E8 medium supplemented with 5 μM Y-27632 dihydrochloride (day 0). On day 1, the medium was switched to E8 medium. On day 2, the medium was switched to E8 medium supplemented with the small molecules. Following overnight incubation, the cells were collected for subsequent analysis on day 3.\nYAP1-related Western blotting: The cells were lysed in RIPA buffer (Pierce) supplemented with Halt Protease inhibitor cocktail and Halt Phosphatase inhibitor cocktail. Cells were lysed in hot Tris-SDS buffer (pH 7.6) and boiled for 5 minutes at 95° C. The protein concentration of each sample was quantified using the Pierce BCA protein assay (Thermo Fisher). The proteins were resolved by SDS-PAGE and transferred to PVDF membranes using the Trans-Blot Turbo Transfer system (Bio-Rad). The membranes were blocked in 5% non-fat milk in TBS-T for up to 1 hour at room temperature and incubated with primary antibodies in 5% bovine serum albumin in TBS-T overnight at 4° C. […]"}, "[4]": {"test_system": "TRAF2 overexpression in U2OS cells", "assay": "Cell Painting morphological profile matching to TRAF2 overexpression", "assay_type": "cell-based, human", "conditions": "Pearson correlation of Cell Painting signatures, U2OS cells", "outline": "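Compound-treated U2OS cells were stained with six fluorescent labels and imaged, and morphological profiles were standardized plate-wise against controls. Replicate profiles were averaged into signatures. Compound and gene-overexpression signatures were matched by Pearson correlation.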"}, "[5]": {"test_system": "STS-109 human UPS cells", "assay": "Proliferation assay, STS-109 cells", "assay_type": "cell-based", "conditions": "10 μM daily", "description": "YAP1 cell culture and treatments: Eisinger lab: Murine KP230 cells, a Yap1-dependent cancer cell line, were derived from a tumor from the KP mouse model (Kras^G12/D; Trp53^f/fl), as described in Eisinger-Mathason, T. S. K. et al., Proc. Natl. Acad. Sci. U.S.A 112 (2015): E3402-11, which is hereby incorporated by reference in its entirety. STS-109 UPS cells were derived from a human UPS tumor and validated by Rebecca Gladdy, MD (Sinai Health System, Toronto, Ontario, Canada). TC32 cells were a gift from Patrick Grohar, MD, PhD (Children's Hospital of Philadelphia). HT-1080, HCT-116, and HEK293T cells were purchased from ATCC. KP230, HT-1080, and HEK-293T cells were grown in DMEM with 10% FBS, 1% L-glutamine, and 1% penicillin/streptomycin (P/S). STS-109 cells were cultured in DMEM with 20% FBS, 1% L-glutamine, and 1% P/S. TC32 cells were grown in RPMI with 10% FBS, 1% L-glutamine, and 1% P/S. HCT-116 cells were cultured in McCoy's 5A medium with 10% FBS and 1% P/S. All cells were confirmed to be negative for mycoplasma contamination and were maintained in an incubator at 37C with 5% CO2. […]\nNB4A treatment: Cells were treated with 10 μM of each inhibitor or an equivalent volume of DMSO every 24 hours for 3-8 days, and counted with a hemocytometer with trypan blue exclusion daily (KP230, HT-1080, TC32, HCT-116), or every 2 days (STS-109)."}, "[6]": {"test_system": "YAP1", "assay": "YAP1 immunofluorescence in H9 cells", "assay_type": "cell-based, human", "conditions": "10 μM, 24 hours", "method": "as §1\nThe cells were fixed with 4% formaldehyde for 15 mins at room temperature. The cells were permeabilized and blocked with PBS containing 2% BSA and 0.1% Triton-X100. The cells were incubated with a primary antibody against YAP1 (sc-101199) at 1:1000 dilution in a blocking buffer overnight at 4° C. Then, a goat anti-mouse Alexa Fluor 488 conjugated secondary antibody was added for 1 hour at room temperature. […] Images were collected with Olympus FV1200 microscope and analyzed with CellProfiler. […] The cell cytoplasm was determined as the region outside nuclei but within the cell bodies. Then, an average pixel intensity of YAP in the nucleus and cytoplasm was calculated to determine YAP translocation"}}, "note": "Where two headings read alike, the source gives them in different places."}
{"compound": "c1ccc(CNc2ncnc3ccccc23)cc1", "note": "[BRD-K43796186, N-benzylquinazolin-4-amine]", "values": [{"measurement": "TAZ mRNA z-score", "setting": "[1]", "result": 2.04}, {"measurement": "YAP1 mRNA z-score", "setting": "[2]; A375 cells, 6 and 24 hours", "result": "~-0.7"}, {"measurement": "YAP1 mRNA z-score", "setting": "[2]; HT29 cells, six hours", "result": 3.16}, {"measurement": "YAP1 mRNA", "setting": "[2]; most cell types in the Connectivity Map", "result": "unaffected"}, {"measurement": "YAP1 S127 phosphorylation", "setting": "[3]", "result": "decreased YAP1 S127 phosphorylation"}, {"measurement": "Corr. to TRAF2", "setting": "[4]", "result": "−0.3778"}, {"measurement": "proliferation", "setting": "[5]", "result": "did not affect the proliferation"}, {"measurement": "YAP1 nuclear localization", "setting": "[6]", "result": "increased YAP1 nuclear localization"}]}
